From PMC9067983, “Identification of highly selective type II kinase inhibitors with chiral peptidomimetic tails” (Journal of Enzyme Inhibition and Medicinal Chemistry, 2022)
Where a SMILES comes first, the peptide text is derived from it. [ ]: non-standard residue; d: D form. The star is where a group is joined. X1 = Cc1ccc(Nc2ncc3c(n2)N(C)C(=O)N(c2cc(C(=O)*)ccc2C)C3)cn1; Chg = N[C@H](C(=O)O)C1CCCCC1; Pip = O=C(O)[C@@H]1CCCCN1; Ac4c = NC1(C(=O)O)CCC1; Aib = CC(C)(N)C(=O)O

Experiments:
[1] = target: T1, Lck (Homo sapiens, UniProt P06239); test: In vitro kinase assay (IC50); format: biochemical
T1 construct: purchased Reaction Biology Corp
Experimental: (§1) Full panel kinase profiling and kinase IC50 measurement were performed by using Reaction Biology Corp. (San Diego, USA).

[2] = target: T2, c-Src (Homo sapiens, UniProt P12931); test: In vitro kinase assay (IC50); format: biochemical
T2 construct: purchased Reaction Biology Corp
Experimental: as §1

T1 sequence (P06239 whole entry): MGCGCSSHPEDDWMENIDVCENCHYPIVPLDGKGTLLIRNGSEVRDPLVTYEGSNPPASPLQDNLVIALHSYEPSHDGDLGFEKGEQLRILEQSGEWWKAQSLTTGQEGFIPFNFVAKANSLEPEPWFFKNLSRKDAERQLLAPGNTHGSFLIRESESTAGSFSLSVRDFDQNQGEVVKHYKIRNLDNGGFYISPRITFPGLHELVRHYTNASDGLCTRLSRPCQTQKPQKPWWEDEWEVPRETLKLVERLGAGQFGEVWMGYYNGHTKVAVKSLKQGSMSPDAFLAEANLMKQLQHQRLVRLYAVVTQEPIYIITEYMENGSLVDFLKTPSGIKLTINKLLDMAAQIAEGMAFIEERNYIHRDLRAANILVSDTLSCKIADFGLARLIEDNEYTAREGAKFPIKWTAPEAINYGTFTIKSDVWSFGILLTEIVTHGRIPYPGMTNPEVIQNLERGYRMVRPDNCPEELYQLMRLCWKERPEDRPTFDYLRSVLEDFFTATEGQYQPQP
T2 sequence (P12931 whole entry): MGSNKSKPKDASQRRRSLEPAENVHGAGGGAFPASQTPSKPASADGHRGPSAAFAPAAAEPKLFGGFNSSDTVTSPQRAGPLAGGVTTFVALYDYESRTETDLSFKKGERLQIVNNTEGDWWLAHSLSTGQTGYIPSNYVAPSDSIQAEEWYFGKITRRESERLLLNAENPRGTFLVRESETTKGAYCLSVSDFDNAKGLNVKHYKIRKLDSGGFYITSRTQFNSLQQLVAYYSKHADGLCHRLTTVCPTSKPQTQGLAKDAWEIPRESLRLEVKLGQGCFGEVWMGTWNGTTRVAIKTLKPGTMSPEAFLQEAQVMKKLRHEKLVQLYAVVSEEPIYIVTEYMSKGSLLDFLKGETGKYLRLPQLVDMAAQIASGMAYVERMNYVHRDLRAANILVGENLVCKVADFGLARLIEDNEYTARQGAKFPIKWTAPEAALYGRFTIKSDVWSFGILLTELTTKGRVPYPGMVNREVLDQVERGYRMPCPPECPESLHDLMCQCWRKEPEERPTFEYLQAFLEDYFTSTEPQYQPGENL

Cc1ccc(Nc2ncc3c(n2)N(C)C(=O)N(c2cc(C(=O)N[C@H](C(=O)N4CCC[C@H]4C(=O)NC(C)(C)C(=O)N[C@H](C(=O)N(C)C)C(C)C)C(C)C)ccc2C)C3)cn1 [7n, (S)-N-(1-(((S)-1-(dimethylamino)-3-methyl-1-oxobutan-2-yl)amino)-2-methyl-1-oxopropan-2-yl)-1-((4-methyl-3-(1-methyl-7-((6-methylpyridin-3-yl)amino)-2-oxo-1,4-dihydropyrimido[4,5-d]pyrimidin-3(2H)-yl)benzoyl)-L-valyl)pyrrolidine-2-carboxamide] (X1-VP[Aib]V-NMe2)
IC50 [1]: 727 nM | IC50 [2]: 3140 nM

CC1=N[C@@H](CC(C)C)C(=O)N(C)c2cc(C(=O)Nc3ccc(C)c(N4Cc5cnc(Nc6ccc(C)nc6)nc5N(C)C4=O)c3)ccc21 [11m, (S)-3-isobutyl-1,5-dimethyl-N-(4-methyl-3-(1-methyl-7-((6-methylpyridin-3-yl)amino)-2-oxo-1,4-dihydropyrimido[4,5-d]pyrimidin-3(2H)-yl)phenyl)-2-oxo-2,3-dihydro-1H-benzo[e][1,4]diazepine-8-carboxamide]
IC50 [1]: 1.05 nM | IC50 [2]: 4.01 nM

Cc1ccc(Nc2ncc3c(n2)N(C)C(=O)N(c2cc(C(=O)N[C@H](C(=O)N4CCC[C@H]4C(=O)NC4(C(=O)N[C@@H](CC(C)C)C(=O)N(C)C)CCC4)C(C)C)ccc2C)C3)cn1 [7f, (S)-N-(1-(((S)-1-(dimethylamino)-4-methyl-1-oxopentan-2-yl)carbamoyl)cyclobutyl)-1-((4-methyl-3-(1-methyl-7-((6-methylpyridin-3-yl)amino)-2-oxo-1,4-dihydropyrimido[4,5-d]pyrimidin-3(2H)-yl)benzoyl)-L-valyl)pyrrolidine-2-carboxamide] (X1-VP[Ac4c]L-NMe2)
IC50 [1]: 27.5 nM | IC50 [2]: 658 nM

COCCN1C(=O)[C@H](CC(C)C)N=C(c2ccccc2)c2ccc(C(=O)Nc3ccc(C)c(N4Cc5cnc(Nc6ccc(C)nc6)nc5N(C)C4=O)c3)cc21 [11n, (S)-3-isobutyl-1-(2-methoxyethyl)-N-(4-methyl-3-(1-methyl-7-((6-methylpyridin-3-yl)amino)-2-oxo-1,4-dihydropyrimido[4,5-d]pyrimidin-3(2H)-yl)phenyl)-2-oxo-5-phenyl-2,3-dihydro-1H-benzo[e][1,4]diazepine-8-carboxamide]
IC50 [1]: 16 nM | IC50 [2]: 48.6 nM

Cc1ccc(Nc2ncc3c(n2)N(C)C(=O)N(c2cc(C(=O)N[C@H](C(=O)N4CCC[C@H]4C(=O)N[C@@H](Cc4ccccc4)C(=O)N[C@@H](CC(C)C)C(=O)N(C)C)C(C)C)ccc2C)C3)cn1 [7i, (S)-N-((S)-1-(((S)-1-(dimethylamino)-4-methyl-1-oxopentan-2-yl)amino)-1-oxo-3-phenylpropan-2-yl)-1-((4-methyl-3-(1-methyl-7-((6-methylpyridin-3-yl)amino)-2-oxo-1,4-dihydropyrimido[4,5-d]pyrimidin-3(2H)-yl)benzoyl)-L-valyl)pyrrolidine-2-carboxamide] (X1-VPFL-NMe2)
IC50 [1]: 61.5 nM | IC50 [2]: 123 nM

Cc1ccc(Nc2ncc3c(n2)N(C)C(=O)N(c2cc(NC(=O)c4ccc5c(c4)N(CC(C)C)C(=O)[C@H](CC(C)C)N=C5c4ccccc4)ccc2C)C3)cn1 [11j, (S)-1,3-diisobutyl-N-(4-methyl-3-(1-methyl-7-((6-methylpyridin-3-yl)amino)-2-oxo-1,4-dihydropyrimido[4,5-d]pyrimidin-3(2H)-yl)phenyl)-2-oxo-5-phenyl-2,3-dihydro-1H-benzo[e][1,4]diazepine-8-carboxamide]
IC50 [1]: 132 nM | IC50 [2]: 461 nM

Cc1ccc(Nc2ncc3c(n2)N(C)C(=O)N(c2cc(C(=O)N[C@H](C(=O)N4CCC[C@H]4C(=O)NC(C)(C)C(=O)N[C@@H](CC(C)C)C(=O)N(C)C)C4CCCCC4)ccc2C)C3)cn1 [7s, (S)-1-((S)-2-cyclohexyl-2-(4-methyl-3-(1-methyl-7-((6-methylpyridin-3-yl)amino)-2-oxo-1,4-dihydropyrimido[4,5-d]pyrimidin-3(2H)-yl)benzamido)acetyl)-N-(1-(((S)-1-(dimethylamino)-4-methyl-1-oxopentan-2-yl)amino)-2-methyl-1-oxopropan-2-yl)pyrrolidine-2-carboxamide] (X1-[Chg]P[Aib]L-NMe2)
IC50 [1]: 36 nM | selectivity for Lck over c-Src [1]: > 10 fold | IC50 [2]: 435 nM

Cc1ccc(Nc2ncc3c(n2)N(C)C(=O)N(c2cc(NC(=O)c4ccc5c(c4)N(C)C(=O)[C@H](CC(C)C)N=C5c4ccccc4)ccc2C)C3)cn1 [11h, (S)-3-isobutyl-1-methyl-N-(4-methyl-3-(1-methyl-7-((6-methylpyridin-3-yl)amino)-2-oxo-1,4-dihydropyrimido[4,5-d]pyrimidin-3(2H)-yl)phenyl)-2-oxo-5-phenyl-2,3-dihydro-1H-benzo[e][1,4]diazepine-8-carboxamide]
IC50 [1]: 24.6 nM | IC50 [2]: 135 nM

C=CCCC1=N[C@@H](CC(=O)Nc2ccc(C)c(N3Cc4cnc(Nc5ccc(C)nc5)nc4N(C)C3=O)c2)C(=O)N(C)c2ccccc21 [11p, (S)-2-(5-(but-3-en-1-yl)-1-methyl-2-oxo-2,3-dihydro-1H-benzo[e][1,4]diazepin-3-yl)-N-(4-methyl-3-(1-methyl-7-((6-methylpyridin-3-yl)amino)-2-oxo-1,4-dihydropyrimido[4,5-d]pyrimidin-3(2H)-yl)phenyl)acetamide]
IC50 [1]: 3.8 nM | IC50 [2]: 6.14 nM

CC1=N[C@H](Cc2ccccc2)C(=O)Nc2cc(C(=O)Nc3ccc(C)c(N4Cc5cnc(Nc6ccc(C)nc6)nc5N(C)C4=O)c3)ccc21 [11l, (R)-3-benzyl-5-methyl-N-(4-methyl-3-(1-methyl-7-((6-methylpyridin-3-yl)amino)-2-oxo-1,4-dihydropyrimido[4,5-d]pyrimidin-3(2H)-yl)phenyl)-2-oxo-2,3-dihydro-1H-benzo[e][1,4]diazepine-8-carboxamide]
IC50 [1]: 4.63 nM | IC50 [2]: 19.6 nM

Cc1ccc(Nc2ncc3c(n2)N(C)C(=O)N(c2cc(C(=O)N[C@H](C(=O)N4CCC[C@H]4C(=O)NC(C)(C)C(=O)NCC(=O)N(C)C)C(C)C)ccc2C)C3)cn1 [7u, (S)-N-(1-((2-(dimethylamino)-2-oxoethyl)amino)-2-methyl-1-oxopropan-2-yl)-1-((4-methyl-3-(1-methyl-7-((6-methylpyridin-3-yl)amino)-2-oxo-1,4-dihydropyrimido[4,5-d]pyrimidin-3(2H)-yl)benzoyl)-L-valyl)pyrrolidine-2-carboxamide] (X1-VP[Aib]G-NMe2)
IC50 [1]: 174 nM | IC50 [2]: 1140 nM

Cc1ccc(Nc2ncc3c(n2)N(C)C(=O)N(c2cc(C(=O)N[C@H](C(=O)N4CCC[C@@H]4C(=O)NCC(=O)N[C@@H](CC(C)C)C(=O)N(C)C)C(C)C)ccc2C)C3)cn1 [7h, (R)-N-(2-(((S)-1-(dimethylamino)-4-methyl-1-oxopentan-2-yl)amino)-2-oxoethyl)-1-((4-methyl-3-(1-methyl-7-((6-methylpyridin-3-yl)amino)-2-oxo-1,4-dihydropyrimido[4,5-d]pyrimidin-3(2H)-yl)benzoyl)-L-valyl)pyrrolidine-2-carboxamide] (X1-V[dP]GL-NMe2)
IC50 [1]: 64.4 nM | IC50 [2]: 1740 nM

Cc1ccc(Nc2ncc3c(n2)N(C)C(=O)N(c2cc(C(=O)N[C@H](C(=O)N4CCC[C@@H]4C(=O)NC(C)(C)C(=O)N[C@H](C(=O)N(C)C)C(C)C)C(C)C)ccc2C)C3)cn1 [7o, (R)-N-(1-(((S)-1-(dimethylamino)-3-methyl-1-oxobutan-2-yl)amino)-2-methyl-1-oxopropan-2-yl)-1-((4-methyl-3-(1-methyl-7-((6-methylpyridin-3-yl)amino)-2-oxo-1,4-dihydropyrimido[4,5-d]pyrimidin-3(2H)-yl)benzoyl)-L-valyl)pyrrolidine-2-carboxamide] (X1-V[dP][Aib]V-NMe2)
IC50 [1]: 1040 nM | IC50 [2]: > 10000 nM

Cc1ccc(Nc2ncc3c(n2)N(C)C(=O)N(c2cc(NC(=O)c4ccc5c(c4)NC(=O)[C@@H](Cc4ccccc4)N=C5c4ccccc4)ccc2C)C3)cn1 [11f, (R)-3-benzyl-N-(4-methyl-3-(1-methyl-7-((6-methylpyridin-3-yl)amino)-2-oxo-1,4-dihydropyrimido[4,5-d]pyrimidin-3(2H)-yl)phenyl)-2-oxo-5-phenyl-2,3-dihydro-1H-benzo[e][1,4]diazepine-8-carboxamide]
IC50 [1]: 18.7 nM | IC50 [2]: 62.6 nM

Cc1ccc(Nc2ncc3c(n2)N(C)C(=O)N(c2cc(NC(=O)c4ccc5c(c4)NC(=O)[C@H](Cc4ccc(F)cc4)N=C5c4ccccc4)ccc2C)C3)cn1 [11g, (S)-3-(4-fluorobenzyl)-N-(4-methyl-3-(1-methyl-7-((6-methylpyridin-3-yl)amino)-2-oxo-1,4-dihydropyrimido[4,5-d]pyrimidin-3(2H)-yl)phenyl)-2-oxo-5-phenyl-2,3-dihydro-1H-benzo[e][1,4]diazepine-8-carboxamide]
IC50 [1]: 42.1 nM | IC50 [2]: 134 nM

C=CCCC1=N[C@@H](CC(=O)Nc2ccc(C)c(N3Cc4cnc(Nc5ccc(C)nc5)nc4N(C)C3=O)c2)C(=O)N(Cc2ccccc2)c2ccccc21 [11q, (S)-2-(1-benzyl-5-(but-3-en-1-yl)-2-oxo-2,3-dihydro-1H-benzo[e][1,4]diazepin-3-yl)-N-(4-methyl-3-(1-methyl-7-((6-methylpyridin-3-yl)amino)-2-oxo-1,4-dihydropyrimido[4,5-d]pyrimidin-3(2H)-yl)phenyl)acetamide]
IC50 [1]: 17.9 nM | IC50 [2]: 24.8 nM

Cc1ccc(Nc2ncc3c(n2)N(C)C(=O)N(c2cc(C(=O)N[C@H](C(=O)N4CCCC[C@H]4C(=O)NC(C)(C)C(=O)N[C@@H](CC(C)C)C(=O)N(C)C)C(C)C)ccc2C)C3)cn1 [7j, (S)-N-(1-(((S)-1-(dimethylamino)-4-methyl-1-oxopentan-2-yl)amino)-2-methyl-1-oxopropan-2-yl)-1-((4-methyl-3-(1-methyl-7-((6-methylpyridin-3-yl)amino)-2-oxo-1,4-dihydropyrimido[4,5-d]pyrimidin-3(2H)-yl)benzoyl)-L-valyl)piperidine-2-carboxamide] (X1-V[Pip][Aib]L-NMe2)
IC50 [1]: 18 nM | IC50 [2]: 586 nM
